From patent publication US5500442A, “Cyclobut-3-ene-1,2-dione derivatives as smooth muscle relaxants” (American Home Products Corporation, priority 1994, dated 1996)

Assays:
Isolated Rat Bladder = experiment: Bladder smooth muscle relaxing activity: inhibition of KCl-enhanced contractions in isolated rat bladder strips; format: cell-based, Sprague-Dawley rats; conditions: 15 mM KCl; for IC50: 37 deg. C, read-out: IC50 of Bladder Contraction; for inhibition at up to 30 µM: at 30 μM, value in parentheses, read-out: % Inhibition of Bladder Contraction at 30 μM
From the text: Bladder smooth muscle relaxing activity of the compounds of this invention was established in accordance with standard pharmaceutically accepted test procedures in representative compounds as follows:
Sprague-Dawley rats (150-200 g) are rendered unconscious by CO2 asphyxiation and then euthanized by cervical dislocation. The bladder is removed into warm (37 deg. C) physiological salt solution (PSS) of the following composition (mM): NaCl, 118.4; KCl, 4.7; CaCl2, 2.5; […]; NaHCO3, 24.9; KH2 PO4, 1.2; glucose, 11.1; EDTA, 0.023; gassed with […]; pH 7.4. The bladder is opened and then cut into strips 1-2 mm in width and 7-10 mm in length. The strips are subsequently suspended in a 10 ml tissue bath under an initial resting tension of 1.5 g. The strips are held in place by two surgical clips one of which is attached to fixed hook while the other is attached to an isometric force transducer. […] The carbachol is then washed out and the tissue allowed to relax to its resting level of activity. Following 1 further 30 min period of recovery an additional 15 mM KCl are introduced into the tissue bath. This increase in KCl concentration results in a large increase in the amplitude of spontaneous contractions (and initiation of contractions in previously quiescent strips) superimposed upon a small increase in basal tone. Following stabilization of this enhanced level of contractile activity, incremental increases in the concentration of test compound or vehicle are introduced into the tissue bath. Contractile activity is measured for each compound or vehicle concentration during the last rain of a 30 rain challenge.
Isometric force developed by the bladder strips is measured using a […] to elicit 50% inhibition of pre-drug contractile activity (IC50 concentration) is calculated from this concentration-response curve. The maximum percentage inhibition of contractile activity evoked by a test compound is also recorded for concentrations of test compound<or equal to 30 uM.

[1] = tested on: Isolated Rat Aortic Tissue; experiment: Aortic smooth muscle relaxing activity: inhibition of KCl-evoked contracture in isolated rat aortic rings; format: cell-based, Sprague-Dawley rats; conditions: isolated rat thoracic aorta rings, 25 mM KCl; read-out: IC50 of Aorta Contraction
From the text: Aortic smooth muscle relaxing activity of the compounds of this invention was established in accordance with standard pharmaceutically accepted test procedures in representative compounds as follows:
Sprague-Dawley rats (150-200 g) are rendered unconscious by CO2 asphyxiation and then euthanized by cervical dislocation. The thoracic aorta is removed into warm (37 deg. C.) Krebs-Henseleit solution. The aorta is cleaned of fat and loose adventitia and cut into rings 3-4 mm in width. The rings are subsequently suspended between two stainless steel wire tissue holders in a 10 ml tissue bath. One wire tissue holder is attached to fixed hook while the other is attached to an isometric force transducer. Resting tension is set at 1.0 g. The tissues are allowed to recover for a period of 60 mins prior to beginning the experiment. The tissues are challenged with 25 mM KCl to elicit a contracture. The tissue are then washed repeatedly with fresh Krebs-Henseleit solution over a period of 30 rains and allowed to recover to baseline tension. 25 mM KCl is then introduced into the tissue bath to evoke a contracture that is allowed to stabilize for not less than 45 rains. Increasing concentrations of test compound or vehicle are then added to the tissue bath in a cumulative fashion.
Isometric force developed by the aortic rings is measured using force transducer and recorded on a polygraph. The percentage inhibition of contractile force evoked by each concentration of a given test compound is used to generate a concentration-response curve. The concentration required to elicit 50% inhibition of pre-drug contractile activity (IC50 concentration) is calculated from this concentration-response curve. The maximum percentage inhibition of contractile activity evoked by a test compound is also recorded for concentrations of test compound<or equal to 30 uM.

Compound	IC50 (Isolated Rat Bladder)	IC50 [1]	inhibition at up to 30 µM (Isolated Rat Bladder)
CC(C)Oc1c(-c2ccc3c(c2)[C@@H](N2Cc4ccccc4C2=O)[C@H](O)C(C)(C)O3)c(=O)c1=O (relative stereo) [Example 3, 3-[trans-3-hydroxy-2,2-dimethyl-4-(1-oxo-1,3-dihydroisoindol-2-yl)-chroman-6-yl]-4-isopropoxy-cyclobut-3-ene-1,2-dione]	10100 ± 390 nM	1160 ± 210 nM	–
CC1(C)Oc2ccc(-c3c(N)c(=O)c3=O)cc2[C@@H](N2Cc3ccccc3C2=O)[C@@H]1O (relative stereo) [Example 4, 4-Amino-3-[trans-3-hydroxy-2,2-dimethyl-4-(1-oxo-1,3-dihydroisoindol-2-yl)-chroman-6-yl]-cyclobut-3-ene-1,2-dione]	190 ± 20 nM	170 ± 40 nM	–
CC1(C)Oc2ccc(-c3c(NCCO)c(=O)c3=O)cc2[C@@H](N2Cc3ccccc3C2=O)[C@@H]1O (relative stereo) [Example 5, 3-[trans-3-Hydroxy-2,2-dimethyl-4-(1-oxo-1,3-dihydroisoindol-2-yl),-chroman-6-yl]-4-(2-hydroxy-ethylamino)-cyclobut-3-ene-1,2-dione]	–	–	14%
CC1(C)Oc2ccc(-c3c(N4CCCC4)c(=O)c3=O)cc2[C@@H](N2Cc3ccccc3C2=O)[C@@H]1O (relative stereo) [Example 6, 3-[trans-3-Hydroxy-2,2-dimethyl-4-(1-oxo-1,3-dihydroisoindol-2-yl)-chroman-6-yl]-4-pyrrolindin-1-yl-cyclobut-3-ene-1,2-dione]	–	–	33%
CNc1c(-c2ccc3c(c2)[C@@H](N2Cc4ccccc4C2=O)[C@H](O)C(C)(C)O3)c(=O)c1=O (relative stereo) [Example 7, 3-[trans-3-Hydroxy-2,2-dimethyl-4-(1-oxo-1,3-dihydroisoindol-2-yl)-chroman-6-yl]-4-methylamino-cyclobut-3-ene-1,2-dione]	1620 nM	830 ± 240 nM	–
CC1(C)Oc2ccc(-c3c(O)c(=O)c3=O)cc2[C@@H](N2Cc3ccccc3C2=O)[C@@H]1O (relative stereo) [Example 8, 3-Hydroxy-4-[trans-3-hydroxy-2,2-dimethyl-4-(1-oxo-1,3-dihydroisoindol-2-yl)-chroman-6-yl]-cyclobut-3-ene-1,2-dione]	21900 nM	–	–
Cc1c(-c2ccc3c(c2)[C@@H](N2Cc4ccccc4C2=O)[C@H](O)C(C)(C)O3)c(=O)c1=O (relative stereo) [Example 9, 3-[trans-3-Hydroxy-2,2-dimethyl-4-(1-oxo-1,3-dihydro-isoindol-2-yl)-chroman-6-yl]-4-methyl-cyciobut-3-ene-1,2-dione]	110 nM	15 ± 7 nM	–
